One assay has as its target T1, cGKII (Mus musculus, UniProt Q61410).
T1 construct: gene Prkg2; recombinant murine cGKII expressed in SF9 cells
T1 sequence (Q61410 2-762): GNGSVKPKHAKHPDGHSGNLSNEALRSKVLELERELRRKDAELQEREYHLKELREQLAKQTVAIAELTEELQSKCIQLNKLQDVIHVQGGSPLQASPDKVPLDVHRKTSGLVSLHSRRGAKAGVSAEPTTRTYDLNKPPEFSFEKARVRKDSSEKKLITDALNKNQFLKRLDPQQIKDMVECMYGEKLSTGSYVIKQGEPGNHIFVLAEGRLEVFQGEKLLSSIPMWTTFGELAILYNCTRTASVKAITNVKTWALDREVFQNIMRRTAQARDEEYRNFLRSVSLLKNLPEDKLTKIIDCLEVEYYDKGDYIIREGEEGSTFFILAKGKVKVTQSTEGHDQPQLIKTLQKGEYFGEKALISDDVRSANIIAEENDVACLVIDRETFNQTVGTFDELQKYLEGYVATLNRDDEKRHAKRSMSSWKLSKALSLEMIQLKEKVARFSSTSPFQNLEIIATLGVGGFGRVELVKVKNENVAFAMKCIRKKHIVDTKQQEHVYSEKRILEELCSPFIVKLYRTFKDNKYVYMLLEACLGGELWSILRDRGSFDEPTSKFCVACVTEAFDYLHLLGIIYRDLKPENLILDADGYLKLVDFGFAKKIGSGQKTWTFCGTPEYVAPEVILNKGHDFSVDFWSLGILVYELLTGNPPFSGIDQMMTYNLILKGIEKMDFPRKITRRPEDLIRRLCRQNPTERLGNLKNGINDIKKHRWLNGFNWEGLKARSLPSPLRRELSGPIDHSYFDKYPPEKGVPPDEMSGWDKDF
The assay is described as follows: (γ-32P) ATP kinase assay with IRAGtide, activation of purified enzyme. It counts as biochemical.

For a further assay, the target named is T2, cAKRIα (Mus musculus, UniProt Q9DBC7).
T2 construct: gene Prkar1a; endogenous regulatory subunit in lung tissue lysate
T2 sequence (Q9DBC7 2-381): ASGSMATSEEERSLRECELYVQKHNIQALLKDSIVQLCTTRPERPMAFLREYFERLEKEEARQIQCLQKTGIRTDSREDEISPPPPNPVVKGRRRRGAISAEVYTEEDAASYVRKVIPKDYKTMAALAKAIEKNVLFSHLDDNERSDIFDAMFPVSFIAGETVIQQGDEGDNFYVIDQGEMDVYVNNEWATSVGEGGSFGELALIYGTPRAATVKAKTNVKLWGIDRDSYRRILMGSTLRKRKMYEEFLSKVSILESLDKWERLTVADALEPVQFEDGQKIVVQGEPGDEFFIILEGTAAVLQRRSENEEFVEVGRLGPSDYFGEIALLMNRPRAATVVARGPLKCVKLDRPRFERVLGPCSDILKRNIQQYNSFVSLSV
The assay is described as follows: 4-AH-cCMP agarose affinity chromatography competed by free cCMP; mass spectrometry and immunoblot (cAKRIα/β antibody). The assay is classed as cell-based. A general note: A western blot detects proteins with antibodies after separation by electrophoresis.

The target in the next assay is T3, cGKI (Mus musculus, UniProt P0C605).
T3 construct: gene Prkg1
T3 sequence (P0C605 2-671): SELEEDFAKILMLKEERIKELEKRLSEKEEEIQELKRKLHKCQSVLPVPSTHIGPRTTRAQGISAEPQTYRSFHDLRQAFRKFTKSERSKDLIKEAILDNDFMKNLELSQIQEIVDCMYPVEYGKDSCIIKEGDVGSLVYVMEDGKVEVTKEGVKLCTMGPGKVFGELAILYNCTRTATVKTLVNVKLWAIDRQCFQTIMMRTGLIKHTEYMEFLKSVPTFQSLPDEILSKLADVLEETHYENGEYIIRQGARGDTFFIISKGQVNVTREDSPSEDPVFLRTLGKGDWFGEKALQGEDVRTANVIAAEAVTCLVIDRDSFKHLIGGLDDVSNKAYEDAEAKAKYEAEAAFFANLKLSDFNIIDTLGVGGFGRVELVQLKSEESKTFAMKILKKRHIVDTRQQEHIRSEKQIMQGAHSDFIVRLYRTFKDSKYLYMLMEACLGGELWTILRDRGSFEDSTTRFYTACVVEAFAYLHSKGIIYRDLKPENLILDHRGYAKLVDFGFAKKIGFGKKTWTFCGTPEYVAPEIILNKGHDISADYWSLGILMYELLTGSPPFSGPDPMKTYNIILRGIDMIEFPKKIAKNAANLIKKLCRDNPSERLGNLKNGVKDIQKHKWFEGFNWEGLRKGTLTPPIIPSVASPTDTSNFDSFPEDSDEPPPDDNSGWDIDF

The structures appear in SMILES notation.

For the compound `Nc1ccn([C@@H]2O[C@@H]3COP(=O)(O)O[C@H]3[C@H]2O)c(=O)n1` [cCMP], the 50% effective concentration (EC50) (commonly the concentration that produces a half-maximal response) on cGKII is 110 ± 8 µM. Further, the “4-AH-cCMP agarose affinity chromatography competed by free cCMP; mass spectromet” value on cAKRIα is on record as “Specific binding of cCMP to cAKRIα/β was also detected”.

`Nc1nc2c(ncn2[C@@H]2O[C@@H]3COP(=O)(O)O[C@H]3[C@H]2O)c(=O)[nH]1` [cGMP]: at cGKI, the EC50 is 2 ± 0.5 µM.

Source of the values: article PMC4433244, “Interaction of cCMP with the cGK, cAK and MAPK Kinases in Murine Tissues” (PLoS ONE, 2015).
